Values of other authors, collected in US20090148509A1, “ENCAPSULATION AND DEAGGREGATION OF POLYENE ANTIBIOTICS USING POLY(ETHYLENE GLYCOL)-PHOSPHOLIPID MICELLES” (WISCONSIN ALUMNI RESEARCH FOUNDATION, priority 2002, published 2009).

Tests used:
[1] = surfactant:AmB

| critical aggregation concentration of AmB in water | Compound | molar ratio required to efficiently deaggregate AmB [1] |
| --- | --- | --- |
|  | sodium deoxycholate | greater than 40 |
| about 1.0 μg/ml | C[C@@H]1[C@H](O)[C@@H](C)/C=C/C=C/C=C/C=C/C=C/C=C/C=C/[C@H](O[C@@H]2O[C@H](C)[C@@H](O)[C@H](N)[C@@H]2O)C[C@@H]2O[C@](O)(C[C@@H](O)C[C@@H](O)[C@H](O)CC[C@@H](O)C[C@@H](O)CC(=O)O[C@H]1C)C[C@H](O)[C@H]2C(=O)O [AmB, Amphotericin B] |  |
